Holding throughout (format): cell-based
Experiment [1] concerns human lung fibroblasts HFL1. The experiment can be described thus: Anti-fibrosis activity test: inhibition of proliferation of human lung fibroblasts HFL1 (CCK-8). The settings on record: Homo sapiens, HFL1, 48 h, human lung fibroblasts HFL1, CCK-8, 48 hours. As to the method:
(§1) BHK-21 cells in exponential growth phase were selected. After the fusion growth reached 85-95%, normal passage method was utilized to digest and collect the cells, followed by cell counting and adjusting the cell density to 2×10^4 cells/mL. The cells were seeded into 96-well plates, 100 μL/well, and were incubated under the condition of 5% CO2 at 37° C.
(§2) The supernatant was removed after the cells had adhered to the wall for 24 hours. The culture solution containing the prepared compounds at different concentrations were added to the wells, 100 μL/well, each concentration in triplicate. The cells were subcultured for 48 hours after administration. Commercially available pirfenidone was employed as the positive control.
(§3) 10 μL of CCK-8 solution ( 1/10 of the volume of the culture solution) was added to each well 48 hours after the administration, and incubated for 2 hours. The absorbance (A) of each well was determined by a microplate reader at 450 nm wavelength. The inhibition rate against cell proliferation for each compound was calculated based on A, wherein inhibition rate against cell proliferation (inhibition ratio, IR)=(1−value of experimental group (Ai)/value of blank control group (Ao))×100% and the IC50 value of each compound was calculated by the data processing software.
(§4) Using the same protocol for the cell experiments, the inhibitory activity of the test compounds against the proliferation of human lung fibroblasts HFL1, human hepatic stellate cells LX-2, human fibrosarcoma cells HT-1080, human dermal fibroblasts CCC-ESF-1, human embryonic lung fibroblast IMR-90, cardiac fibroblast RAT-iCell-C002 was assayed.

For experiment [2], the system named is human dermal fibroblasts CCC-ESF-1. The experiment can be described thus: Anti-fibrosis activity test: inhibition of proliferation of human dermal fibroblasts CCC-ESF-1 (CCK-8). The settings on record: Fibroblast; human dermal fibroblasts CCC-ESF-1, CCK-8, 48 hours. As to the method: as §1, §2, §3, §4
The subject of a further experiment is BHK-21 cells. Briefly: Anti-fibrosis activity test: inhibition of BHK-21 cell proliferation (CCK-8). The following applies: Mesocricetus auratus, BHK-21, 48 h, CCK-8, 48 hours after administration. As for the experimental part: as §1, §2, §3
The subject of experiment [3] is human embryonic lung fibroblast IMR-90. Briefly: Anti-fibrosis activity test: inhibition of proliferation of human embryonic lung fibroblast IMR-90 (CCK-8). The settings on record: human embryonic lung fibroblast IMR-90, CCK-8, 48 hours. As for the experimental part: as §1, §2, §3, §4
Experiment [4] deals with human hepatic stellate cells LX-2. The experiment can be described thus: Anti-fibrosis activity test: inhibition of proliferation of human hepatic stellate cells LX-2 (CCK-8). The following applies: Homo sapiens, 48 h, human hepatic stellate cells LX-2, CCK-8, 48 hours. As for the experimental part: as §1, §2, §3, §4
Experiment [5] concerns human fibrosarcoma cells HT-1080. Briefly: Anti-fibrosis activity test: inhibition of proliferation of human fibrosarcoma cells HT-1080 (CCK-8). The following applies: Homo sapiens, HT-1080, 48 h, human fibrosarcoma cells HT-1080, CCK-8, 48 hours. As to the method:
as §1, §2, §3, §4

The subject of experiment [6] is cardiac fibroblast RAT-iCell-C002. Briefly: Anti-fibrosis activity test: inhibition of proliferation of cardiac fibroblast RAT-iCell-C002 (CCK-8). The following applies: Cardiac fibroblast, 48 h, cardiac fibroblast RAT-iCell-C002, CCK-8, 48 hours. As to the method: as §1, §2, §3, §4

The text below walks through data of patent US11040028B2, “Penicinotam derivative, preparation method and use thereof” (OCEAN UNIVERSITY OF CHINA, priority 2017, dated 2021).

Some results are limits rather than exact numbers.

By IC50 is commonly meant the point on the concentration scale where inhibition reaches its midpoint. The low end stands for greater potency, the high end for weaker potency. With `O=C1c2c(nc3cc(N4CCNCC4)c(F)cc3c2OCc2ccc(Br)cc2)-c2cccn21` [Compound 633b, 9-((4-bromobenzyl)oxy)-7-fluoro-6-(piperazin-1-yl)-10H-pyrrolizino[1,2-b]quinolin-10-one], the IC50 (in experiment [1]; in experiment [2]; in the experiment with BHK-21 cells; in experiment [3]; in experiment [4]; in experiment [5]) was 0.05 to 5 mM each time. The molecule also showed an IC50 in experiment [6] of 0.05 to 5 mM.

As for `O=C1c2c(n(Cc3ccc(F)cc3)c3cc(N4CCNCC4)c(F)cc3c2=O)-c2cccn21` [Compound 634a, 7-Fluoro-4-(4-fluorobenzyl)-6-(piperazin-1-yl)-9H-pyrrolizino[1,2-b]quinoline-9,10(4H)-dione], the IC50 (in experiment [1]; in experiment [2]; with BHK-21 cells; in experiment [3]; in experiment [4]; in experiment [5]) was 0.05 to 5 mM throughout. For the same molecule, the IC50 in experiment [6] was in the range of 0.05 to 5 mM.

With `O=C1c2c(nc3cc(N4CCNCC4)c(F)cc3c2OCc2ccc(F)cc2)-c2cccn21` [Compound 634b, 7-fluoro-9-((4-fluorobenzyl)oxy)-6-(piperazin-1-yl)-10H-pyrrolizino[1,2-b]quinolin-10-one], the IC50 (in experiment [1]; in experiment [2]; in the experiment with BHK-21 cells; in experiment [3]; in experiment [4]; in experiment [5]) was 0.05 to 5 mM each time. For the same molecule, in experiment [6], the IC50 was 0.05 to 5 mM.

Take `N#Cc1ccc(Cn2c3c(c(=O)c4cc(F)c(N5CCNCC5)cc42)C(=O)n2cccc2-3)cc1` [Compound 635a, 4-((7-Fluoro-9,10-dioxo-6-(piperazin-1-yl)-9H-pyrrolizino[1,2-b]quinolin-4(10H)-yl)methyl)benzonitrile]: the IC50 (in experiment [1]; in experiment [2]; in the experiment with BHK-21 cells; in experiment [3]; in experiment [4]; in experiment [5]) was 0.05 to 5 mM throughout. The IC50 in experiment [6] lay within 0.05 to 5 mM.

For `N#Cc1ccc(COc2c3c(nc4cc(N5CCNCC5)c(F)cc24)-c2cccn2C3=O)cc1` [Compound 635b, 4-(((7-fluoro-10-oxo-6-(piperazin-1-yl)-10H-pyrrolizino[1,2-b]quinolin-9-yl)oxy)methyl)benzonitrile], the IC50 (in experiment [1]; in experiment [2]; in the experiment on BHK-21 cells; in experiment [3]; in experiment [4]; in experiment [5]) was 0.05 to 5 mM each time. The IC50 in experiment [6] was 0.05 to 5 mM.

Consider `O=C1c2c(n(Cc3ccc(C(F)(F)F)cc3)c3cc(N4CCNCC4)c(F)cc3c2=O)-c2cccn21` [Compound 636a, 7-Fluoro-6-(piperazin-1-yl)-4-(4-(trifluoromethyl)benzyl)-9H-pyrrolizino[1,2-b]quinoline-9,10(4H)-dione], for which the IC50 in experiment [1] was 0.05 to 5 mM; in experiment [2] it was under 0.05 mM; in the experiment with BHK-21 cells, 0.05 to 5 mM; in experiment [3] it was 0.05 to 5 mM; in experiment [4], 0.05 to 5 mM; in experiment [5], 0.05 to 5 mM. For the same molecule, the IC50 in experiment [6] was 0.05 to 5 mM.

Turning to `O=C1c2c(nc3cc(N4CCNCC4)c(F)cc3c2OCc2ccc(C(F)(F)F)cc2)-c2cccn21` [Compound 636b, 7-fluoro-6-(piperazin-1-yl)-9-((4-(trifluoromethyl)benzyl)oxy)-10H-pyrrolizino[1,2-b]quinolin-10-one], the IC50 (in experiment [1]; in experiment [2]; in the experiment on BHK-21 cells; in experiment [3]; in experiment [4]; in experiment [5]) was 0.05 to 5 mM throughout. Moreover, the IC50 in experiment [6] fell in the range of 0.05 to 5 mM.

In the case of `O=C1c2c(n(Cc3ccc(-c4ccccc4)cc3)c3cc(N4CCNCC4)c(F)cc3c2=O)-c2cccn21` [Compound 637a, 4-([1,1′-Biphenyl]-4-ylmethyl)-7-fluoro-6-(piperazin-1-yl)-9H-pyrrolizino[1,2-b]quinoline-9,10(4H)-dione], the concentration for half-maximal inhibition (IC50) in experiment [1] was 0.05 to 5 mM; in experiment [2] it was 0.05 to 5 mM; with BHK-21 cells, under 0.05 mM; in experiment [3] it was 0.05 to 5 mM; in experiment [4], 0.05 to 5 mM; in experiment [5], 5 to 20 mM. This molecule had a half-maximal inhibitory concentration (IC50) in experiment [6] of 0.05 to 5 mM.

Take `O=C1c2c(nc3cc(N4CCNCC4)c(F)cc3c2OCc2ccc(-c3ccccc3)cc2)-c2cccn21` [Compound 637b, 9-([1,1′-biphenyl]-4-ylmethoxy)-7-fluoro-6-(piperazin-1-yl)-10H-pyrrolizino[1,2-b]quinolin-10-one]: the IC50 in experiment [1] lay within 0.05 to 5 mM; in experiment [2], 0.05 to 5 mM; in the experiment with BHK-21 cells, 0.05 to 5 mM; in experiment [3] it was 0.05 to 5 mM; in experiment [4], 0.05 to 5 mM; in experiment [5], 5 to 20 mM. Also, the half-maximal inhibitory concentration (IC50) in experiment [6] lay in the range of 0.05 to 5 mM.

Regarding `N#Cc1ccccc1-c1ccc(Cn2c3c(c(=O)c4cc(F)c(N5CCNCC5)cc42)C(=O)n2cccc2-3)cc1` [Compound 638a, 4′-((7-Fluoro-9,10-dioxo-6-(piperazin-1-yl)-9H-pyrrolizino[1,2-b]quinolin-4(10H)-yl)methyl)-[1,1′-biphenyl]-2-carbonitrile], the IC50 (in experiment [1]; in experiment [2]; in the experiment with BHK-21 cells; in experiment [3]; in experiment [4]; in experiment [5]) was 0.05 to 5 mM each time. Also, the IC50 in experiment [6] lay within 0.05 to 5 mM.

As for `N#Cc1ccccc1-c1ccc(COc2c3c(nc4cc(N5CCNCC5)c(F)cc24)-c2cccn2C3=O)cc1` [Compound 638b, 4′-(((7-fluoro-10-oxo-6-(piperazin-1-yl)-10H-pyrrolizino[1,2-b]quinolin-9-yl)oxy)methyl)-[1,1′-biphenyl]-2-carbonitrile], the 50% inhibitory concentration (IC50) (in experiment [1]; in experiment [2]; with BHK-21 cells; in experiment [3]; in experiment [4]; in experiment [5]) was 0.05 to 5 mM throughout. In experiment [6], this molecule came in with an IC50 of 0.05 to 5 mM.

On to `O=C1c2c(nc3cc(N4CCNCC4)c(F)cc3c2OCc2cc(C(F)(F)F)cc(C(F)(F)F)c2)-c2cccn21` [Compound 639b, 9-((3,5-bis(trifluoromethyl)benzyl)oxy)-7-fluoro-6-(piperazin-1-yl)-10H-pyrrolizino[1,2-b]quinolin-10-one], for which the IC50 (in experiment [1]; in experiment [2]; in the experiment with BHK-21 cells; in experiment [3]; in experiment [4]; in experiment [5]) was 0.05 to 5 mM each time. In experiment [6], this molecule came in with an IC50 of 0.05 to 5 mM.

As for `N#Cc1cc2c(=O)c3c(n(Cc4ccc(Cl)cc4)c2cc1N1CCNCC1)-c1cccn1C3=O` [Compound 640a, 4-(4-Chlorobenzyl)-9,10-dioxo-6-(piperazin-1-yl)-4,10-dihydro-9H-pyrrolizino[1,2-b]quinoline-7-carbonitrile], the IC50 (in experiment [1]; in experiment [2]; with BHK-21 cells; in experiment [3]; in experiment [4]; in experiment [5]) was 0.05 to 5 mM in each case. Moreover, the IC50 in experiment [6] was 0.05 to 5 mM.
